In patent publication US4315009A, “Antisecretory guanidine derivatives and pharmaceutical compositions containing them” (Imperial Chemical Industries Limited, priority 1978, dated 1982) one finds overt toxicity data, which are given here for one compound.

The nature of the data set: overt toxicity in mice after intraperitoneal dosing. The class given is in vivo. The settings on record: intraperitoneally, 50 mg./kg.

As to `C/N=C(\NC#N)Nc1cccc(-c2csc(N=C(N)N)n2)c1` [Example 2, 2-guanidino-4-[3-(2-cyano-3-methylguanidino)phenyl]thiazole], the overt toxicity entry is listed as “no overt toxicity”.
